Results published in US7601686B2, “Hepatitis C virus inhibitors” (Bristol-Myers Squibb Company, priority 2005, dated 2009).
Read-outs that look alike come from different tables or passages of the source.

Legend:
[1] = target: T1, HCV NS3/4A protease complex, BMS strain (UniProt P27958, species not given/STRAIN_BMS); test: FRET peptide assay to monitor HCV NS3/4A proteolytic activity (BMS strain); format: biochemical, Hepatitis C virus (genotype 1a)
T1 construct: DNA encoding the recombinant HCV NS3/4A protease complex (amino acids 1027 to 1711) for these strains [H77 and J4L6S]; fused on or other part: For the H77 and J4L6S constructs, a three-lysine solubilising tail at the NS4A C-terminus and a Ni-NTA-purifiable tag from pET21b
T1 sequence (P27958 1027-1657, stated change not applied, one chain of several): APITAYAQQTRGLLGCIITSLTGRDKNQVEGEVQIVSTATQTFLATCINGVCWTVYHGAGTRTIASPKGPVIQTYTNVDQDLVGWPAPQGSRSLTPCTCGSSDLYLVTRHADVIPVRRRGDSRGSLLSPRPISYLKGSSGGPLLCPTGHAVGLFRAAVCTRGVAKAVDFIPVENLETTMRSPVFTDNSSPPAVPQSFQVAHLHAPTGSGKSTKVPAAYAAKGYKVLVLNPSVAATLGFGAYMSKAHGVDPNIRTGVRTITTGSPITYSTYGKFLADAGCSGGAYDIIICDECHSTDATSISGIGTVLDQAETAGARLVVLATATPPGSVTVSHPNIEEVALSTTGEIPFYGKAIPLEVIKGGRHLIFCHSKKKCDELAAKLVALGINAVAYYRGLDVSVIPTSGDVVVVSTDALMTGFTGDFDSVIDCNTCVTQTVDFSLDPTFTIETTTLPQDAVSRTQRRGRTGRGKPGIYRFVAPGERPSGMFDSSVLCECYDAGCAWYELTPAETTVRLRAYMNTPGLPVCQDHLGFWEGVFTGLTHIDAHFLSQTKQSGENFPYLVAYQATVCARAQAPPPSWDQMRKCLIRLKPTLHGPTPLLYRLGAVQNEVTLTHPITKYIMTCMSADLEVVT
Description: Generation of Recombinant HCV NS3/4A Protease Complex
HCV NS3 protease complexes, derived from the BMS strain, H77 strain or J4L6S strain, were generated, as described below. These purified recombinant proteins were generated for use in a homogeneous assay (see below) to provide an indication of how effective compounds of the present disclosure would be in inhibiting HCV NS3 proteolytic activity.
Serum from an HCV-infected patient was obtained from Dr. T. Wright, San Francisco Hospital. An engineered full-length cDNA (compliment deoxyribonucleic acid) template of the HCV genome (BMS strain) was constructed from DNA fragments obtained by reverse transcription-PCR (RT-PCR) of serum RNA (ribonucleic acid) and using primers selected on the basis of homology between other genotype 1a strains. From the determination of the entire genome sequence, a genotype 1a was assigned to the HCV isolate according to the classification of Simmonds et al. (See P Simmonds, K A Rose, S Graham, S W Chan, F McOmish, B C Dow, E A Follett, P L Yap and H Marsden, J. Clin. Microbiol., 31(6), 1493-1503 (1993)). […] The infectious clones, H77 (1a genotype) and J4L6S (1b genotype) were obtained from R. Purcell (NIH) and the sequences are published in Genbank (AAB67036, see Yanagi, M., Purcell, R. H., Emerson, S. U. and Bukh, J. Proc. Natl. Acad. Sci. U.S.A. 94(16), 8738-8743 (1997); AF054247, see Yanagi, M., St Claire, M., Shapiro, M., Emerson, S. U., Purcell, R. H. and Bukh, J, Virology 244 (1), 161-172. (1998)).
The H77 and J4L6S strains were used for production of recombinant NS3/4A protease complexes. DNA encoding the recombinant HCV NS3/4A protease complex (amino acids 1027 to 1711) for these strains were manipulated as described by P. Gallinari et al. (see Gallinari P, Paolini C, Brennan D, Nardi C, Steinkuhler C, De Francesco R. Biochemistry. 38(17):5620-32, (1999)). Briefly, a three-lysine solubilizing tail was added at the 3′-end of the NS4A coding region. The cysteine in the P1 position of the NS4A-NS4B cleavage site (amino acid 1711) was changed to a glycine to avoid the proteolytic cleavage of the lysine tag. Furthermore, a cysteine to serine mutation was introduced by PCR at amino acid position 1454 to prevent the autolytic cleavage in the NS3 helicase domain. The variant DNA fragment was cloned in the pET21b bacterial expression vector (Novagen) and the NS3/4A complex was expressed in Escherichia coli strain BL21 (DE3) (Invitrogen) following the protocol described by P. Gallinari et al. (see Gallinari P, Brennan D, Nardi C, Brunetti M, Tomei L, Steinkuhler C, De Francesco R., J. Virol. 72(8):6758-69 (1998)) with modifications. Briefly, the NS3/4A protease complex expression was induced with 0.5 millimolar (mM) Isopropyl β-D-1-thiogalactopyranoside (IPTG) for 22 hours (h) at 20° C. A typical fermentation (1 Liter (L)) yielded approximately 10 grams (g) of wet cell paste. The cells were resuspended in lysis buffer (10 mL/g) consisting of 25 mM N-(2-Hydroxyethyl)piperazine-N′-(2-Ethane Sulfonic acid) (HEPES), pH 7.5, 20% glycerol, 500 mM Sodium Chloride (NaCl), 0.5% Triton X-100, 1 microgram/milliliter (“μg/mL”) lysozyme, 5 mM Magnesium Chloride (MgCl2), 1 μg/mL DnaseI, 5 mM β-Mercaptoethanol (βME), Protease inhibitor—Ethylenediamine Tetraacetic acid (EDTA) free (Roche), homogenized and incubated for 20 minutes (min) at 4° C. The homogenate was sonicated and clarified by ultra-centrifugation at 235000 g for 1 h at 4° C. Imidazole was added to the supernatant to a final concentration of 15 mM and the pH adjusted to 8.0. The crude protein extract was loaded on a Nickel—Nitrilotriacetic acid (Ni-NTA) column pre-equilibrated with buffer B (25 mM HEPES, pH 8.0, 20% glycerol, 500 mM NaCl, 0.5% Triton X-100, 15 mM imidazole, 5 mM βME). The sample was loaded at a flow rate of 1 mL/min. The column was washed with 15 column volumes of buffer C (same as buffer B except with 0.2% Triton X-100). […]

[2] = tested on: HCV replicon in HUH-7 cells; test: HCV replicon FRET assay; format: cell-based, Hepatitis C virus (strain 1b); settings: HCV replicon cell assay, HUH-7, read-out: EC50 Range
Description: Generation of HCV Replicon
An HCV replicon whole cell system was established as described by Lohmann V, Korner F, Koch J, Herian U, Theilmann L, Bartenschlager R., Science 285(5424):110-3 (1999). This system enabled us to evaluate the effects of our HCV Protease compounds on HCV RNA replication. Briefly, using the HCV strain 1b sequence described in the Lohmann paper (Assession number:AJ238799), an HCV cDNA was synthesized by Operon Technologies, Inc. (Alameda, Calif.), and the full-length replicon was then assembled in plasmid pGem9zf(+) (Promega, Madison, Wis.) using standard molecular biology techniques. The replicon consists of (i) the HCV 5′ UTR fused to the first 12 amino acids of the capsid protein, (ii) the neomycin phosphotransferase gene (neo), (iii) the IRES from encephalomyocarditis virus (EMCV), and (iv) HCV NS3 to NS5B genes and the HCV 3′ UTR. Plasmid DNAs were linearized with ScaI and RNA transcripts were synthesized in vitro using the T7 MegaScript transcription kit (Ambion, Austin, Tex.) according to manufacturer's directions. In vitro transcripts of the cDNA were transfected into the human hepatoma cell line, HUH-7. […] Resulting cell lines were characterized for positive and negative strand RNA production and protein production over time.
The HCV replicon FRET assay was developed to monitor the inhibitory effects of compounds described in the disclosure on HCV viral replication. HUH-7 cells, constitutively expressing the HCV replicon, were grown in Dulbecco's Modified Eagle Media (DMEM) (Gibco-BRL) containing 10% Fetal calf serum (FCS) (Sigma) and 1 mg/mL G418 (Gibco-BRL). Cells were seeded the night before (1.5×10^4 cells/well) in 96-well tissue-culture sterile plates. Compound and no compound controls were prepared in DMEM containing 4% FCS, 1:100 Penicillin/Streptomysin (Gibco-BRL), 1:100 L-glutamine and 5% DMSO in the dilution plate (0.5% DMSO final concentration in the assay). Compound/DMSO mixes were added to the cells and incubated for 4 days at 37° C. After 4 days, cells were first assessed for cytotoxicity using alamar Blue (Trek Diagnotstic Systems) for a CC50 reading. The toxicity of compound (CC50) was determined by adding 1/10th volume of alamar Blue to the media incubating the cells. After 4 h, the fluorescence signal from each well was read, with an excitation wavelength at 530 nm and an emission wavelength of 580 nm, using the Cytofluor Series 4000 (Perspective Biosystems). Plates were then rinsed thoroughly with Phosphate-Buffered Saline (PBS) (3 times 150 μl).

[3] = NS3/4A BMS strain, enzyme assay; read-out: IC 50 Range
[4] = read-out: IC 50 Range; NS3/4A BMS strain, enzyme assay

| Compound | IC50 [1, 3] [µM] | EC50 ([2]; Hepatitis C virus) [µM] | IC50 [1, 4] [µM] | EC50 [2] [µM] |
| --- | --- | --- | --- | --- |
| C=CC1CC1(NC(=O)[C@@H]1C[C@@H](NC(=O)c2sc3ccccc3c2Cl)CN1C(=O)[C@@H](NC(=O)CC1CC1)C(C)(C)C)C(=O)NS(=O)(=O)C1CC1 (single isomer, unassigned) [Compound 3] | < 0.15 | 0.15 to 15 | – | – |
| C=CC1CC1(NC(=O)[C@@H]1C[C@@H](NC(=O)NCc2ccccc2)CN1C(=O)[C@@H](NC(=O)OC(C)(C)C)C(C)(C)C)C(=O)NS(=O)(=O)C1CC1 (stereo partly drawn) [Compound 44] | 0.15 to 15 | > 15 | – | – |
| C=CC1CC1(NC(=O)[C@@H]1C[C@@H](NC(=O)c2cccc3cccnc23)CN1C(=O)[C@@H](NC(=O)CC1CC1)C(C)(C)C)C(=O)NS(=O)(=O)C1CC1 (stereo partly drawn) [Compound 31] | < 0.15 | 0.15 to 15 | – | – |
| C=CC1CC1(NC(=O)[C@@H]1C[C@@H](NC(=O)c2ccc3cnccc3n2)CN1C(=O)[C@@H](NC(=O)CC1CC1)C(C)(C)C)C(=O)NS(=O)(=O)C1CC1 (stereo partly drawn) [Compound 41] | < 0.15 | > 15 | – | – |
| C=CC1CC1(NC(=O)[C@@H]1C[C@@H](NC(=O)OC2=NCc3ccccc32)CN1C(=O)[C@@H](NC(=O)CC1CC1)C(C)(C)C)C(=O)NS(=O)(=O)C1CC1 (stereo partly drawn) [Compound 52] | – | 0.15 to 15 | < 0.15 | – |
| C=CC1CC1(NC(=O)[C@@H]1C[C@@H](NC(=O)c2coc3ccccc3c2=O)CN1C(=O)[C@@H](NC(=O)CC1CC1)C(C)(C)C)C(=O)NS(=O)(=O)C1CC1 (stereo partly drawn) [Compound 39] | < 0.15 | 0.15 to 15 | – | – |
| C=CC1CC1(NC(=O)[C@@H]1C[C@@H](NC(=O)c2cn(CC)c3cc4c(cc3c2=O)OCO4)CN1C(=O)[C@@H](NC(=O)CC1CC1)C(C)(C)C)C(=O)NS(=O)(=O)C1CC1 (stereo partly drawn) [Compound 40] | – | > 15 | < 0.15 | – |
| C=CC1CC1(NC(=O)[C@@H]1C[C@@H](NC(=O)c2c(-c3ccc(Cl)cc3)cn3ccccc23)CN1C(=O)[C@@H](NC(=O)CC1CC1)C(C)(C)C)C(=O)NS(=O)(=O)C1CC1 (stereo partly drawn) [Compound 21] | < 0.15 | 0.15 to 15 | – | – |
| C=CC1CC1(NC(=O)[C@@H]1C[C@@H](NC(=O)c2cccc3c2OCC3)CN1C(=O)[C@@H](NC(=O)CC1CC1)C(C)(C)C)C(=O)NS(=O)(=O)C1CC1 (stereo partly drawn) [Compound 30] | 0.15 to 15 | > 15 | – | – |
| C=CC1CC1(NC(=O)[C@@H]1C[C@@H](NC(=O)c2c(OCC)ccc3ccccc23)CN1C(=O)[C@@H](NC(=O)CC1CC1)C(C)(C)C)C(=O)NS(=O)(=O)C1CC1 (stereo partly drawn) [Compound 37] | 0.15 to 15 | > 15 | – | – |
| C=CC1CC1(NC(=O)[C@@H]1C[C@@H](NC(=O)c2cn(C)c3ccccc23)CN1C(=O)[C@@H](NC(=O)CC1CC1)C(C)(C)C)C(=O)NS(=O)(=O)C1CC1 (stereo partly drawn) [Compound 19] | – | > 15 | < 0.15 | – |
| C=CC1CC1(NC(=O)C1CC(NC(=O)c2cccc[n+]2[O-])CN1C(=O)C(NC(=O)CC1CC1)C(C)(C)C)C(=O)NS(=O)(=O)C1CC1 (stereo not drawn) [Compound 33] | – | > 15 | 0.15 to 15 | – |
| C=CC1CC1(NC(=O)[C@@H]1C[C@@H](NS(=O)(=O)c2cccc3ccccc23)CN1C(=O)[C@@H](NC(=O)OC(C)(C)C)C(C)(C)C)C(=O)NS(=O)(=O)C1CC1 (stereo partly drawn) [Compound 48] | 0.15 to 15 | > 15 | – | – |
| C=CC1CC1(NC(=O)[C@@H]1C[C@@H](NC(=O)c2cc3ccccc3n2C)CN1C(=O)[C@@H](NC(=O)CC1CC1)C(C)(C)C)C(=O)NS(=O)(=O)C1CC1 (stereo partly drawn) [Compound 26] | < 0.15 | 0.15 to 15 | – | – |
| C=CC1CC1(NC(=O)[C@@H]1C[C@@H](NC(=O)c2ccccc2-c2ccccc2)CN1C(=O)[C@@H](NC(=O)CC1CC1)C(C)(C)C)C(=O)NS(=O)(=O)C1CC1 (stereo partly drawn) [Compound 38] | 0.15 to 15 | > 15 | – | – |
| C=CC1CC1(NC(=O)[C@@H]1C[C@@H](NC(=O)OCC2c3ccccc3-c3ccccc32)CN1C(=O)[C@@H](NC(=O)CC1CC1)C(C)(C)C)C(=O)NS(=O)(=O)C1CC1 (stereo partly drawn) [Compound 7] | 0.15 to 15 | > 15 | – | – |
| C=CC1CC1(NC(=O)[C@@H]1C[C@@H](NC(=O)c2ccc3ccccc3n2)CN1C(=O)[C@@H](NC(=O)CC1CC1)C(C)(C)C)C(=O)NS(=O)(=O)C1CC1 (stereo partly drawn) [Compound 25] | < 0.15 | 0.15 to 15 | – | – |
| C=CC1CC1(NC(=O)[C@@H]1C[C@@H](NC(=O)c2c(C)nc3sccn23)CN1C(=O)[C@@H](NC(=O)CC1CC1)C(C)(C)C)C(=O)NS(=O)(=O)C1CC1 (stereo partly drawn) [Compound 20] | < 0.15 | > 15 | – | – |
| C=CC1CC1(NC(=O)[C@@H]1C[C@@H](NC(=O)c2cc3ccccc3s2)CN1C(=O)[C@@H](NC(=O)CC1CC1)C(C)(C)C)C(=O)NS(=O)(=O)C1CC1 (stereo partly drawn) [Compound 32] | < 0.15 | 0.15 to 15 | – | – |
| C=CC1CC1(NC(=O)[C@@H]1C[C@@H](N2C(=O)c3ccccc3C2=O)CN1C(=O)[C@@H](NC(=O)CC1CC1)C(C)(C)C)C(=O)NS(=O)(=O)C1CC1 (stereo partly drawn) [Compound 58] | – | > 15 | 0.15 to 15 | – |
| C=CC1CC1(NC(=O)[C@@H]1C[C@@H](NC(=O)c2c(C)nc3ccccn23)CN1C(=O)[C@@H](NC(=O)CC1CC1)C(C)(C)C)C(=O)NS(=O)(=O)C1CC1 (stereo partly drawn) [Compound 18] | 0.15 to 15 | – | – | > 15 |
